According to patent US9562065B2, “Sucrose octasulfates of magnesium, preparation method thereof and pharmaceutical cosmetic uses of same” (PIERRE FABRE DERMO-COSMETIQUE, priority 2011, dated 2017):
Marks after values point to notes of the source that are not given here.

Experiments:
Format in all cases: cell-based
[1] = tested on: HaCaT human keratinocytes cell line; test: Oris Cell Migration Assay, keratinocyte migration; conditions: for AVG IF (Intensity of Fluorescence, proportional to the quantity of cells having migrated) / % activity/control: 24 hours; for AVG IF (Intensity of Fluorescence, proportional to the quantity of cells having migrated): DMEM 0% FCS; for % activity/control: in relation to the 0% FCS control
Experimental: In order to evaluate the impact of sucrose octasulfate of magnesium on the cell migration of HaCaT keratinocyte cell lines, studies were carried out using the Oris Cell Migration Assay Kit (Platypus Technologies). This study was conducted in parallel with sucrose octasulfate of potassium and sucrose octasulfate of sodium for comparison.
The keratinocyte cell line used is the HaCaT human keratinocytes cell line, spontaneously immortalized. This line is frequently cited as a reference model in the literature.
The protocol used for the cell migration study is based on the use of a 96-well kit, Oris Cell Migration Assay (Platypus Technologies—TEBU), enabling the miniaturization and quantification of this cell process.
The principle of this test consists in studying cell migration toward the center of the well of the 96-well plate. It consists in placing a stopper in the wells, in order to create a detection zone 2 mm in diameter. Then the stoppers are removed once the cells are well adhered to the surrounding surface, thus allowing the cells to migrate toward the detection zone. Plates without stoppers and with active agents are incubated at 37° C. for 24 hours in DMEM 0% FCS. The quantity of cells located in the zone previously occupied by the stopper is then analyzed in order to evaluate cell migration. A mask is used to visualize and count only the cells located in this zone. For each condition, an average of 4 to 8 wells is prepared.
The products tested in this study are SOS-Mg obtained in example 1 at a concentration of 10 μM, SOS-K at 10 μM (sucrose octasulfate of potassium), SOS-Na at 10 μM (sucrose octasulfate of sodium) and EGF as positive control. A negative control is prepared in which no compound is added to the culture medium (control 0% FCS).
The results are quantified by means of the following formula:
[formula] • in IF (Intensity of Fluorescence, proportional to the quantity of cells having migrated). • in percentage of activity in relation to the 0% FCS control.

DEFB103A = test: mRNA expression in normal human keratinocytes (Quantigene), DEFB103A; parameters: dose or concentration left out as unconfirmed; conditions: CaCl2, positive control, 72 hours, NHK, in relation to the negative control
Experimental: (§1) The effect of sucrose octasulfate of magnesium and sucrose octasulfate of potassium and sodium on regulation of molecular targets involved in keratinocyte differentiation processes was evaluated. To that end, normal human keratinocytes (NHK) were brought together with the various products to be tested and the expression of various RNA coding proteins involved in the establishment of protein structures of the cornified envelope, but also in the synthesis of lipids or the expression of antimicrobial peptides, was measured.
(§2) The keratinocyte cell line used is the primary human keratinocyte cell line or NHKs prepared from strips of skin from cosmetic surgery waste (breast reduction). […]
(§3) The products to be tested are incubated with keratinocytes for 72 hours. The cells are then recovered and an analysis of the expression of target genes involved in epidermal differentiation is carried out using Quantigene technology, used to quantify the expression of mRNA of interest.
(§4) The values obtained by Quantigene are normalized in relation to the geometric mean of 2 reference genes, POL2RA and HPRT. Relative quantity is calculated in relation to the control. Regulation of the expression of the gene of interest is taken into account from a RQ (relative quantity)≧1.9 (induction) or RQ[…] (inhibition). […]

CDSN = test: mRNA expression in normal human keratinocytes (Quantigene), CDSN; parameters: dose or concentration left out as unconfirmed; conditions: positive control, 72 hours, NHK, in relation to the negative control
Experimental: as §1, §2, §3, §4

RNASE7 = test: mRNA expression in normal human keratinocytes (Quantigene), RNASE7; parameters: dose or concentration left out as unconfirmed; conditions: CaCl2, positive control, 72 hours, NHK, in relation to the negative control
Experimental: as §1, §2, §3, §4

UGCG = test: mRNA expression in normal human keratinocytes (Quantigene), UGCG; parameters: dose or concentration left out as unconfirmed; conditions: CaCl2, positive control, 72 hours, NHK, in relation to the negative control
Experimental: as §1, §2, §3, §4

FLG = test: mRNA expression in normal human keratinocytes (real-time PCR), FLG; conditions: 30 μM, 72 hours, NHK
Experimental: (§5) The keratinocyte cell line used is the primary human keratinocyte cell line or NHKs prepared from strips of skin from cosmetic surgery waste (breast reduction). The cells are grown in low-magnesium (0.1 mM) KSFM (Invitrogen) supplemented with 25 μg/ml bovine pituitary extract (BPE) and 1.5 ng/ml […] (EGF).
as §3
(§6) A second study was carried out under the same conditions but by measuring the expression of a larger number of genes (64 targets involved in cell differentiation) by real-time PCR.
(§7) These inductions show the role of SOS-Mg in the induction of keratinocyte differentiation and thus of cicatrization (IVL, SPRR1A, SPRR1B and LOR), in moisturization (Padi1) as well as its antimicrobial properties (hBD2).

IVL = test: mRNA expression in normal human keratinocytes (real-time PCR), IVL; conditions: 30 μM, 72 hours, NHK
Experimental: as §5, §3, §6, §7

SPRR1A = test: mRNA expression in normal human keratinocytes (real-time PCR), SPRR1A; conditions: 30 μM, 72 hours, NHK
Experimental: as §5, §3, §6, §7

SPRR1B = test: mRNA expression in normal human keratinocytes (real-time PCR), SPRR1B; conditions: 30 μM, 72 hours, NHK
Experimental: as §5, §3, §6, §7

LOR = test: mRNA expression in normal human keratinocytes (real-time PCR), loricrin; conditions: 30 μM, 72 hours, NHK, FIG. 1
Experimental: FIG. 1 represents the relative quantity of loricrin mRNA produced by keratinocytes treated for 72 hours with 30 μM sucrose octasulfate of magnesium (SOS-Mg), 30 μM sucrose octasulfate of sodium (SOS-Na) or 30 μM sucrose octasulfate of magnesium (SOS-Mg) in relation to the negative control.
as §5, §3, §6
(§8) These inductions show the role of SOS-Mg in the induction of keratinocyte differentiation and thus of cicatrization (IVL, SPRR1A, SPRR1B and LOR), in moisturization (Padi1) as well as its antimicrobial properties (hBD2). […]

Padi1 = test: mRNA expression in normal human keratinocytes (real-time PCR), Padi1; conditions: 30 μM, 72 hours, NHK, FIG. 2
Experimental: FIG. 2 represents the relative quantity of Padi1 mRNA produced by keratinocytes treated for 72 hours with 30 μM sucrose octasulfate of magnesium (SOS-Mg), 30 μM sucrose octasulfate of sodium (SOS-Na) or 30 μM sucrose octasulfate of magnesium (SOS-Mg) in relation to the negative control.
as §5, §3, §6, §8

hBD2 (DEFB4) = test: mRNA expression in normal human keratinocytes (real-time PCR), hBD2; conditions: 30 μM, 72 hours, NHK, FIG. 3
Experimental: FIG. 3 represents the relative quantity of hBD2 mRNA produced by keratinocytes treated for 72 hours with 30 μM sucrose octasulfate of magnesium (SOS-Mg), 30 μM sucrose octasulfate of sodium (SOS-Na) or 30 μM sucrose octasulfate of magnesium (SOS-Mg) in relation to the negative control.
as §5, §3, §6, §8

Compound: O=S(=O)([O-])OC[C@H]1O[C@@](COS(=O)(=O)[O-])(O[C@H]2O[C@H](COS(=O)(=O)[O-])[C@@H](OS(=O)(=O)[O-])[C@H](OS(=O)(=O)[O-])[C@H]2OS(=O)(=O)[O-])[C@@H](OS(=O)(=O)[O-])[C@@H]1OS(=O)(=O)[O-].[K+].[K+].[K+].[K+].[K+].[K+].[K+].[K+] [SOS-K, sucrose octasulfate of potassium]
- AVG IF (Intensity of Fluorescence, proportional to the quantity of cells having migrated) ([1]; 10 μM, HaCaT): 5001 ± 835
- % activity/control ([1]; 10 μM): 99%
- keratinocyte migration (result in words) ([1]; 10 μM, HaCaT): do not induce keratinocyte migration

Compound: [Ca+2].[Cl-].[Cl-] [CaCl2]
- Relative quantities (RQ) of mRNA expression, DEFB103A (DEFB103A): 18.7
- Relative quantities (RQ) of mRNA expression, DEFB103A (DEFB103A; listed as Calcium): induced
- Relative quantities (RQ) of mRNA expression, CDSN (CDSN): 1.3
- Relative quantities (RQ) of mRNA expression, RNASE7 (RNASE7): 4.5
- Relative quantities (RQ) of mRNA expression, RNASE7 (RNASE7; listed as Calcium): induced
- Relative quantities (RQ) of mRNA expression, UGCG (UGCG): 3.1
- Relative quantities (RQ) of mRNA expression, UGCG (UGCG; listed as Calcium): induced

Compound: O=S(=O)([O-])OC[C@H]1O[C@@](COS(=O)(=O)[O-])(O[C@H]2O[C@H](COS(=O)(=O)[O-])[C@@H](OS(=O)(=O)[O-])[C@H](OS(=O)(=O)[O-])[C@H]2OS(=O)(=O)[O-])[C@@H](OS(=O)(=O)[O-])[C@@H]1OS(=O)(=O)[O-].[Na+].[Na+].[Na+].[Na+].[Na+].[Na+].[Na+].[Na+] [SOS-Na, sucrose octasulfate of sodium]
- AVG IF (Intensity of Fluorescence, proportional to the quantity of cells having migrated) ([1]; 10 μM, HaCaT): 4988 ± 965
- % activity/control ([1]; 10 μM): 99%
- keratinocyte migration (result in words) ([1]; 10 μM, HaCaT): do not induce keratinocyte migration

Compound: EGF: epithelial growth factor (EGF), positive control of the migration test
- AVG IF (Intensity of Fluorescence, proportional to the quantity of cells having migrated) ([1]; EGF 33 ng, positive control, HaCaT): 16138 ± 1548
- % activity/control ([1]; EGF 33 ng, positive control): 320*** %
- keratinocyte migration (result in words) ([1]; EGF at 33 ng/ml, positive control, HaCaT): induced keratinocyte migration (and proliferation) in a very large and significant manner

Compound: sucrose octasulfate of magnesium [SOS-Mg]
- AVG IF (Intensity of Fluorescence, proportional to the quantity of cells having migrated) ([1]; 10 μM, HaCaT): 7084 ± 662
- % activity/control ([1]; 10 μM): 140* %
- keratinocyte migration (result in words) ([1]; 10 μM, HaCaT): induced keratinocyte migration in a statistically significant manner
- migration relative to that induced by SOS-Na and SOS-K ([1]; 10 μM, HaCaT): 1.4 times
- expression of FLG mRNA (FLG): induced
- expression of IVL mRNA (IVL): induced
- expression of SPRR1A mRNA (SPRR1A): induced
- expression of SPRR1B mRNA (SPRR1B): induced
- expression of LOR (loricrin) mRNA (LOR): induced to a greater extent
- expression of Padi1 mRNA (Padi1): induced to a greater extent
- expression of hBD2 (DEFB4) mRNA (hBD2 (DEFB4)): induced to a greater extent
